Measurements as given in paper PMC7435868, “Structure-Based Virtual Screening, Synthesis and Biological Evaluation of Potential FAK-FAT Domain Inhibitors for Treatment of Metastatic Cancer” (Molecules, 2020).
Structures can show the parent of a compound that is named as a salt.

Assays:
[1] = Turbidimetric aqueous solubility; format: physicochemical; settings: 37 °C, 2 h; for Estimated Precipitation Range, Upper Bound / Estimated Precipitation Range, Calculated Mid-Range / Estimated Precipitation Range, Lower Bound: buffered aqueous solution (PBS pH 7.4, 1% DMSO); for Aqueous solubility (in words): turbidimetric
Protocol: Both the estimated precipitation range (lower and upper bound) and a mid-range value were measured. Nicardipine and pyrene were used as control compounds.
The test compound was diluted in buffer to give a range of concentrations (1, 3, 10, 30, and 100 μM; final DMSO concentration 1%) and incubated at 37 °C for 2 hr.
The test compound (10 mM in DMSO) was serially diluted to give solutions of 0.1, 0.3, 1, and 3 mM in DMSO. Each test compound concentration was then further diluted 1 to 100 in buffer (typically 0.01 M phosphate buffered saline pH 7.4) so that the final DMSO concentration was 1%, and the final test compound concentrations were 1, 3, 10, 30, and 100 μM. The experiment was performed at 37 °C and each concentration was incubated in 7 replicate wells. The plates were incubated for 2 h at 37 °C before the absorbance was measured at 620 nm. Nicardipine and pyrene were included as control compounds. The solubility of nicardipine is pH dependent whereas the solubility of pyrene is pH independent.
An estimated precipitation range (lower and upper bound) and a calculated mid-range value were returned, along with any relevant comments, in the form of an Excel spreadsheet.

T47D = assay: Cell viability assay (CellTiter Glo), T47D; format: cell-based, human; settings: Homo sapiens, T47D, 72 h, 72 h incubation, mean of independent triplicate experiments, read-out: In vitro anti-proliferative activity IC50, T47D ER+ PR+/- HER-
Protocol: (§1) The antiproliferative activity of compound I as well as its newly synthesised analogues (5a–i) was evaluated in vitro against the three human breast cancer cell lines MDA-MB-231 (TNBC), T47D (ER^+, HER^−), and BT474 (ER^+, HER^+) as well as a human pancreatic cancer cell line MIAPaCa2. The seeding of the corresponding cell lines started one day before incubation, which lasted for 72 h with the different concentrations of the tested compounds. CellTiter Glo reagent (25 μL) was added to the cell plate. The luminescence was analysed after 10 min using a PerkinElmer Envision instrument. The test compounds were used at ten different triplicate concentrations in half log increments up to 100 μM.

MIAPaCa2 = assay: Cell viability assay (CellTiter Glo), MIAPaCa2; format: cell-based; settings: Homo sapiens, MIA PaCa-2, 72 h incubation, mean of independent triplicate experiments, read-out: In vitro anti-proliferative activity IC50, MIAPaCa2
Protocol: as §1

MDA-MB-231 = assay: Cell viability assay (CellTiter Glo), MDA-MB-231; format: cell-based; settings: Homo sapiens, 72 h incubation, mean of independent triplicate experiments, read-out: In vitro anti-proliferative activity IC50, MDA-MB-231 ER- PR- HER-
Protocol: as §1

[2] = Microsomal metabolic stability; settings: for Compound Remaining (% of 0 min), 0 min / Compound Remaining (% of 0 min), 5 min / Compound Remaining (% of 0 min), 15 min / Compound Remaining (% of 0 min), 30 min / Compound Remaining (% of 0 min), 45 min / Compound Remaining (% of 0 min), Control: human liver microsomes; for Compound Remaining (% of 0 min), Control: minus NADPH control; for Compound Remaining (% of 0 min), 45 min / Compound Remaining (% of 0 min), Control: 45 min; for half-life at 3 μM / microsomal CLint at 3 μM: human, pooled liver microsomes, pH 7.4
Protocol: Half-life (t1/2) values were measured at five time points.
Intrinsic clearance values (CLint) with standard error and t1⁄2 values were measured.
The final incubation volume was 50 μL. A minus cofactor control incubation was included for each compound tested where 0.1 M phosphate buffer pH 7.4 was added instead of NADPH (minus NADPH). Two control compounds were included with each species. All incubations were performed singularly for each test compound.
The reactions were stopped by transferring 20 μL of incubate to 60 μL methanol at the appropriate time points. The termination plates were centrifuged at 2500 rpm for 20 min at 4 °C to precipitate the protein.
Following protein precipitation, the sample supernatants were combined in cassettes of up to 4 compounds, the internal standard was added, and samples were analysed using Cyprotex generic LC-MS/MS conditions.
From a plot of ln peak area ratio (compound peak area/internal standard peak area) against time, the gradient of the line was determined.

BT474 = assay: Cell viability assay (CellTiter Glo), BT474; format: cell-based, human; settings: Homo sapiens, BT-474, 72 h, 72 h incubation, mean of independent triplicate experiments, read-out: In vitro anti-proliferative activity IC50, BT474 ER+ PR+/- HER+
Protocol: as §1

hERG potassium channel = hERG potassium channel (Homo sapiens, UniProt Q12809); assay: hERG channel inhibition (IonWorks automated patch clamp, CHO-hERG cells)
Chain of hERG potassium channel (Q12809 whole entry): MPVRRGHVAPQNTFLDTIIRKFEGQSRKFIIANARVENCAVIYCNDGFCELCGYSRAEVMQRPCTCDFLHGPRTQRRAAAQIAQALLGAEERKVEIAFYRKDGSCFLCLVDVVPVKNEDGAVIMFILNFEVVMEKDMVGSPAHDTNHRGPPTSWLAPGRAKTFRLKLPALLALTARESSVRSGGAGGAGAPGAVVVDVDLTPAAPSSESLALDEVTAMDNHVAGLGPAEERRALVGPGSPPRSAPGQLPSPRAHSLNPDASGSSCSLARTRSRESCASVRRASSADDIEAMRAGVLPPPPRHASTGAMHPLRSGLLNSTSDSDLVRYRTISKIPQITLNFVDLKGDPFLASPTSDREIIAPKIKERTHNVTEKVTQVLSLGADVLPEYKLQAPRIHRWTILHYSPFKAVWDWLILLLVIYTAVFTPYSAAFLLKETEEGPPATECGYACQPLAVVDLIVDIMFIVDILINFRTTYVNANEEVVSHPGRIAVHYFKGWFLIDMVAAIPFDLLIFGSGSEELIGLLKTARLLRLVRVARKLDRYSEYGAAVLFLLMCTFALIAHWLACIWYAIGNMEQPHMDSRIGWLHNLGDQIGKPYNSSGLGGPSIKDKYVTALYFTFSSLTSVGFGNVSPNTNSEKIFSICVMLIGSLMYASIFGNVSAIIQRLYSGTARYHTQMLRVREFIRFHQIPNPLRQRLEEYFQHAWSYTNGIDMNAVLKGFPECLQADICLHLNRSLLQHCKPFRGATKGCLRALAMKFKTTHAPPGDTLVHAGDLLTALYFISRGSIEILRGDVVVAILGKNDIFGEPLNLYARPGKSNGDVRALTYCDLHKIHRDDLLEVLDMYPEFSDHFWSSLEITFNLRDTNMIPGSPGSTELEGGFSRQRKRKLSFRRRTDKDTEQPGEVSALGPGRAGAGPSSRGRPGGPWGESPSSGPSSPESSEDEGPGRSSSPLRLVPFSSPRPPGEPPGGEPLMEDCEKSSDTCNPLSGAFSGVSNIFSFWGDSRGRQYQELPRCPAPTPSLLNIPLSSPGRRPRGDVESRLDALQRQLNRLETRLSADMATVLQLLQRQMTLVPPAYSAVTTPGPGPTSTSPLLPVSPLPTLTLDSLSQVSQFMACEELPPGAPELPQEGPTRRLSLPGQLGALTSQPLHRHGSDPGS
Protocol: Mammalian cells expressing the hERG potassium channel were dispensed into 384-well planar arrays and hERG tail-currents measured by whole-cell voltage-clamping. A range of concentrations of the test compound was then added to the cells and a second recording of the hERG current was made. […] IC50 is delivered, standard error (SE IC50), and n (number of data points used to calculate IC50) for the test compound. The experiments were performed on an Ion Works TM automated patch clamp instrument (Molecular Devices LLC (San Jose, California, United States)), which simultaneously performs electrophysiology measurements for 48 single cells in a specialised 384-well plate (PatchPlateTM(manufacturer, city, state if USA or Canada, country)). All cell suspensions, buffers, and test compound solutions were at room temperature during the experiment.
The cells used were Chinese hamster ovary (CHO) cells stably transfected with hERG (cell-line obtained from Cytomyx, UK). A single-cell suspension was prepared in extracellular solution (Dulbecco’s phosphate buffered saline with calcium and magnesium pH 7.2) and aliquots added automatically to each well of a Patch Plate TM. The cells were then positioned over a small hole at the bottom of each well by applying a vacuum beneath the plate to form an electrical seal. The vacuum was applied through a single compartment common to all wells which was filled with intracellular solution (buffered to pH 7.2 with HEPES). The resistance of each seal was measured via a common ground-electrode in the intracellular compartment and individual electrodes placed into each of the upper wells.
Electrical access to the cell was then achieved by circulating a perforating agent, amphotericin B, underneath the PatchPlateTM. The pre-compound hERG current was then measured. An electrode was positioned in the extracellular compartment and a holding potential of −80 mV applied for 15 s. The hERG channels were then activated by applying a depolarising step to +40 mV for 5 s and then clamped at −50 mV for 4 s to elicit the hERG tail current, before returning to −80 mV for 0.3 s.
The Ion Works TM instrument automatically adds test compound dilutions to the upper wells of the PatchPlateTM. The test compound was left in contact with the cells for 300 s before recording currents using the same voltage-step protocol as in the pre-compound scan.
Each concentration was tested in 4 replicate wells on the PatchPlateTM (maximum of 24 data points). Filters were applied to ensure only acceptable cells were used to assess hERG inhibition.
For each replicate, the hERG response was calculated using the following equation:% hERG response = [Post-compound current (nA)/Pre-compound current (nA)] × 100(5)

| Compound | Estimated Precipitation Range, Upper Bound [1] | Estimated Precipitation Range, Calculated Mid-Range [1] | Estimated Precipitation Range, Lower Bound [1] | Aqueous solubility (in words) [1] | IC50 (T47D) | IC50 (MIAPaCa2) | IC50 (MDA-MB-231) | Compound Remaining (% of 0 min), 0 min [2] | Compound Remaining (% of 0 min), 5 min [2] | Compound Remaining (% of 0 min), 15 min [2] | Compound Remaining (% of 0 min), 30 min [2] | Compound Remaining (% of 0 min), 45 min [2] | Compound Remaining (% of 0 min), Control [2] | half-life at 3 μM [2] | microsomal CLint at 3 μM [2] | IC50 (BT474) | IC50 (hERG potassium channel) |
| --- | --- | --- | --- | --- | --- | --- | --- | --- | --- | --- | --- | --- | --- | --- | --- | --- | --- |
| COC(=O)C1=C(C)NC(C)=C(C(=O)OCCN(C)Cc2ccccc2)C1c1cccc([N+](=O)[O-])c1 (centres unmarked) [nicardipine, reference compound] | 30 µM | – | – | – | – | – | – | – | – | – | – | – | – | – | – | – | – |
| CC(C)(C)c1ccc(C(CN)c2ccc(F)cc2)cc1.Cl (centres unmarked) [5c, 2-(4-tert-butylphenyl)-2-(4-fluorophenyl)ethan-1-aminium chloride] | >100 µM | >100 µM | 100 µM | high aqueous solubility | 13.4 µM | 15.1 µM | 12.8 µM | 100 % of 0 min | 94.7 % of 0 min | 95.0 % of 0 min | 86.1 % of 0 min | 82.5 % of 0 min | 98.0 % of 0 min | 2.8 h | 8.26 µL/min/mg | 8.94 µM | – |
| c1cc2ccc3cccc4ccc(c1)c2c34 [pyrene, reference compound] | 10 µM | 6.5 µM | 3 µM | – | – | – | – | – | – | – | – | – | – | – | – | – | – |
| CC(C)(C)c1ccc(C(CN)c2ccc(SC(F)(F)F)cc2)cc1.Cl (centres unmarked) [5b, 2-(4-tert-butylphenyl)-2-(4-(trifluoromethyl)thiophenyl)ethan-1-aminium chloride] | 20 µM | 11.5 µM | 3 µM | relatively reduced solubility comparable to pyrene | 11.4 µM | 15.7 µM | 11.8 µM | – | – | – | – | – | – | – | – | 12.5 µM | – |
| COc1ccc(C(CN)c2ccc(OC)cc2)cc1 [5i, 2,2-Bis(4-methoxyphenyl)ethan-1-aminium chloride] | – | – | – | – | 43.9 µM | 49 µM | 46.2 µM | – | – | – | – | – | – | – | – | 44.5 µM | 6.01 µM |
| Cl.NCC(c1ccc(OC(F)(F)F)cc1)c1ccc(OC(F)(F)F)cc1 [5h, 2,2-Bis(4-trifluoromethoxyphenyl)ethan-1-aminium chloride] | 100 µM | 65 µM | 30 µM | moderate solubility | 13.2 µM | 39.9 µM | 12.8 µM | 100 % of 0 min | 102 % of 0 min | 108 % of 0 min | 100 % of 0 min | 95.8 % of 0 min | 97.8 % of 0 min | 9.82 h | 2.35 µL/min/mg | 13.2 µM | – |
| CC(C)(C)c1ccc(C(CN)c2ccc(OC(F)(F)F)cc2)cc1 (centres unmarked) [5a, 2-(4-tert-butylphenyl)-2-(4-trifluoromethoxyphenyl)ethan-1-aminium hydrochloride] | 100 µM | 65 µM | 30 µM | moderate solubility | 4.94 µM | 5.51 µM | 5.63 µM | 100 % of 0 min | 95.8 % of 0 min | 92.3 % of 0 min | 86.0 % of 0 min | 81.4 % of 0 min | 91.0 % of 0 min | 2.6 h | 8.91 µL/min/mg | 5 µM | 3.59 µM |
| CC(C)(C)c1ccc(C(CN)c2ccccc2F)cc1 (centres unmarked) [5d, 2-(4-tert-butylphenyl)-2-(2-fluorophenyl)ethan-1-aminium chloride] | – | – | – | – | 14.7 µM | 15.8 µM | 14.8 µM | – | – | – | – | – | – | – | – | 14.8 µM | – |
| CC(C)(C)c1ccc(C(CN)c2cccc(F)c2)cc1 (centres unmarked) [5e, 2-(4-tert-butylphenyl)-2-(3-fluorophenyl)ethan-1-aminium chloride] | – | – | – | – | 14.4 µM | 17 µM | 14.1 µM | – | – | – | – | – | – | – | – | 15 µM | – |
| Cl.NCC(c1ccc(Cl)cc1)c1ccc(OC(F)(F)F)cc1 (centres unmarked) [5g, 2-(4-chlorophenyl)-2-(4-trifluoromethoxyphenyl)ethan-1-aminium chloride] | – | – | – | – | 15.3 µM | 45.3 µM | 16.9 µM | 100 % of 0 min | 99.0 % of 0 min | 96.2 % of 0 min | 86.8 % of 0 min | 72.8 % of 0 min | 86.6 % of 0 min | 1.67 h | 13.9 µL/min/mg | 15.5 µM | – |
